These results are taken from patent publication US20250000971A1, “TLR4 AGONIST FOR MODULATING IMMUNE RESPONSE” (The Children's Medical Center Corporation, priority 2021, published 2025).

Assay [1] deals with human elderly peripheral blood mononuclear cells (PBMCs). As to the kind of experiment: Enriched elderly screen: TNF-inducing activity in human elderly PBMCs (384-well). The format is cell-based. Particulars: screen of 310 molecules, PBMCs of 4 elderly donors, 10% autologous plasma. An excerpt:
FIG. 1A: A graphical overview depicting screen approach. From a high throughput screen previously conducted, 310 molecules were identified to be activators of either THP-1 cells (monocyte cell line) or primary human adult peripheral blood mononuclear cells (PBMCs). These 310 molecules were assembled into a stimulation plate and then applied to the PBMCs of 4 elderly donors (cultured with 10% autologous plasma). […] Z scores were averaged across all 4 elderly donors. The Z score and chemical structure for PVP-180 are indicated.
In a previous high throughput screen (HTS), a number of hit molecules were identified as potentially being able to activate human immune cells. From 200,000 molecules screened, 177 had activity with NF-KB/IRF-inducing and leukocyte adherence/inducing activity. A separate small screen (9,000 molecules of the 200,000) was also conducted and 133 separate molecules had TNF-inducing activity in adult human peripheral blood mononuclear cells (PBMCs). These molecules originated from various bioactive and commercial libraries such as ChemDiv, ChemBridge, and Asinex. All libraries were owned and provided by the Institute of Chemistry and Cell Biology (ICCB)-Longwood (Harvard Medical School). […]

Assay [2] deals with human adult and elderly PBMCs. As to the kind of experiment: TNF production in human adult and elderly PBMCs, 96-well format, 24 h stimulation. The format is cell-based.
The test system of assay [3] is human adult and elderly PBMCs. As to the kind of experiment: Cytokine responses of PBMC supernatants by 14-multiplex assay. The format is cell-based.
Assay [4] deals with wild type murine bone marrow derived dendritic cells (BMDCs). In words: TNF and IL-6 production by wild type murine bone marrow derived dendritic cells. The format is cell-based. Particulars: N=4.
A further assay has as its target T1, human TLR4 (Homo sapiens, UniProt O00206+Q9Y6Y9).
T1 construct: expressed in transfected cells; host or cells: HEK reporter cell line
As to the kind of experiment: PRR-transfected HEK reporter cell lines, TLR4. The format is cell-based. Particulars: HEK reporter cell line, screened at 33 μM. On the procedure: (§1) FIGS. 3A-3B. PVP-180 is a novel small molecule TLR4 agonist. FIG. 3A: PVP-180 was screened at 33 μM using pattern recognition receptor (PRR)-transfected HEK reporter cell lines. Cell line responses are also indicated to PRR-specific positive controls as well as a negative control. […] Further assays confirm that PVP-180 chemical stock is free of detectable endotoxin. FIG. 3B: PVP-180 was tested with THP-1 reporter cells as well as THP-1 cells with MyD88, TBK1, or IRF3 knockout. […] Results are reported as a percentage of TNF activity.

Assay [5] has as its system pattern recognition receptors (PRR) other than TLR4. As to the kind of experiment: PRR-transfected HEK reporter cell lines, other PRRs. The note with it: screened at 33 μM. The class given is cell-based. On the procedure: as §1
The test system of the next assay is NF-KB. In words: THP-1 reporter cells and THP-1 cells with MyD88, TBK1 or IRF3 knockout. The class given is cell-based. The note with it: THP-1 reporter cells versus knockout strains. The procedure: as §1
Assay [6] concerns Balb/c murine model of SARS-COV-2 immunization. In words: Balb/c murine model of SARS-COV-2 immunization with rSpike with or without adjuvant. The format is in vivo, mice. The note with it: for rSpike immunogenicity: adult (12 weeks) and aged mice (52 weeks), booster on Day 14.

“Also recorded” adds a separate entry of the source.

T1 sequence (O00206 24-839): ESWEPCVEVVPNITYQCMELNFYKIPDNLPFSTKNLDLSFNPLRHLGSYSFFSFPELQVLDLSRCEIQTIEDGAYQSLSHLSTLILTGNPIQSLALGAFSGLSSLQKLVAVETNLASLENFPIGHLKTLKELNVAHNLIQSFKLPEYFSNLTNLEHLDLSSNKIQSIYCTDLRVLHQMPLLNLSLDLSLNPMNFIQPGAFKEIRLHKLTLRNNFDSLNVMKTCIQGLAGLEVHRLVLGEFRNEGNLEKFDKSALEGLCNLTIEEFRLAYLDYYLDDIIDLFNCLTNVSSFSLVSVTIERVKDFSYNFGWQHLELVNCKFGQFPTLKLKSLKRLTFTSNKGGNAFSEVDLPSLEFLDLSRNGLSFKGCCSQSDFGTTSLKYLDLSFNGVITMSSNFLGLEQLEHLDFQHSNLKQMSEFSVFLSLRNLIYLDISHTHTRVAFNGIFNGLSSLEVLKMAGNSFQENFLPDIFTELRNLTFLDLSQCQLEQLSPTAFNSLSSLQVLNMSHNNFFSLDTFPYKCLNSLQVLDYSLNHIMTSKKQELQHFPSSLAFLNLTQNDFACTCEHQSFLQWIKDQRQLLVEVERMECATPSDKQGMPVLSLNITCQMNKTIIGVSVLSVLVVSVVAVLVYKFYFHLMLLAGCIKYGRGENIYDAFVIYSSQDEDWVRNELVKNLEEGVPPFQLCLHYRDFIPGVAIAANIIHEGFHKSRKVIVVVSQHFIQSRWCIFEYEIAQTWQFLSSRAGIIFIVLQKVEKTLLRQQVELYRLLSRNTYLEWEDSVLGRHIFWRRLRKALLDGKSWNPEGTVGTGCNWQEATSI
T1 sequence (Q9Y6Y9 19-160): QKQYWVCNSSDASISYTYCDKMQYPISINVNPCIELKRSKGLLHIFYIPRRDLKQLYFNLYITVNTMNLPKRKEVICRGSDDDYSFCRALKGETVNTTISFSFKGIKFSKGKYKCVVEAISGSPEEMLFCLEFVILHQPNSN

Consider `CC1CCc2cc(F)ccc2N1C(=O)c1ccc(N2CC3CC(C2)c2cccc(=O)n2C3)c(NC(=O)c2cccnc2)c1` (centres unmarked) [PVP-180], for which the “TNF-inducing activity toward elderly PBMCs” value in assay [1] is on record as “robust activity”. In addition, the “TNF response as fold-change over the positive control (R848)” value in assay [2] (at 3 μM and above) is recorded as “more adult-like TNF response”. Also, in assay [2] (elderly and adult PBMCs, stimulated for 24 hours, N=4), the “production of TNF” value is given as “titration-dependent production of TNF”. Besides, in assay [3] (14-multiplex assay), the “innate immune response (cytokines), elder versus younger adult leucocytes” value is “greater innate immune response in elder leucocytes than in younger adult controls”. In addition, the “production of multiple cytokines including TNF, IFNγ and IL-10” value in assay [3] (both populations (adult and elderly PBMCs), PVP-180 at 25 μM, N=4 donors) was “induced the production of multiple cytokines”. Also, the “cytokine (TNF, IL-6, IL-10, IL-12, GM-CSF, IFN-γ, IL1-β, IP-10) and/or chemokine (CCL2, CCL5, CXCL8) production” value in assay [3] (human PBMC in vitro, compound alone) is recorded as “sufficient to induce cytokine”. In addition, the “induction of IL-6 production” value in assay [4] is “concentration-dependent induction”. The “induction of TNF production” value in assay [4] is “concentration-dependent induction”. Further, on human TLR4, the “activity toward TLR4” value is “strong activity; also recorded: significant activity”. The “activity toward the other PRRs tested” value in assay [5] was “not the other PRRs tested”. In the assay on NF-KB, the “dependence of mechanism on MyD88, TBK1, IRF3” value was “dependent upon MyD88, TBK1, and IRF3”. Further, the figures for the rSpike immunogenicity entry in assay [6] and in assay [6] (listed as compound of Formula (I)) were “enhanced rSpike immunogenicity” and “enhanced antigen-specific immune response”, respectively. Further, the “adjuvant activity in adult mice” value in assay [6] (adult mice, overall IgG at Day 28) is recorded as “adjuvant activity in immunized adult mice. though with a less pronounced effect than in aged mice”. The “anti-rSpike IgG2 antibodies” value in assay [6] (aged mice) is given as “increase”. For the same compound, in assay [6] (aged mice, overall IgG at Day 28), the “antibody titers versus rSpike alone” value was “substantially higher antibody titers”. For the same compound, in assay [6] (both adult and aged mice), the “anti-rSpike IgG1 subtype antibodies” value was “primarily enhanced the production”.
